By EC50 is commonly meant the concentration needed to bring the measured effect to its halfway point.

The target in one assay is T1, human TLR8 (hTLR8) (Homo sapiens, UniProt Q9NR97).
T1 construct: expressed in transfected cells
T1 sequence (Q9NR97 27-1041): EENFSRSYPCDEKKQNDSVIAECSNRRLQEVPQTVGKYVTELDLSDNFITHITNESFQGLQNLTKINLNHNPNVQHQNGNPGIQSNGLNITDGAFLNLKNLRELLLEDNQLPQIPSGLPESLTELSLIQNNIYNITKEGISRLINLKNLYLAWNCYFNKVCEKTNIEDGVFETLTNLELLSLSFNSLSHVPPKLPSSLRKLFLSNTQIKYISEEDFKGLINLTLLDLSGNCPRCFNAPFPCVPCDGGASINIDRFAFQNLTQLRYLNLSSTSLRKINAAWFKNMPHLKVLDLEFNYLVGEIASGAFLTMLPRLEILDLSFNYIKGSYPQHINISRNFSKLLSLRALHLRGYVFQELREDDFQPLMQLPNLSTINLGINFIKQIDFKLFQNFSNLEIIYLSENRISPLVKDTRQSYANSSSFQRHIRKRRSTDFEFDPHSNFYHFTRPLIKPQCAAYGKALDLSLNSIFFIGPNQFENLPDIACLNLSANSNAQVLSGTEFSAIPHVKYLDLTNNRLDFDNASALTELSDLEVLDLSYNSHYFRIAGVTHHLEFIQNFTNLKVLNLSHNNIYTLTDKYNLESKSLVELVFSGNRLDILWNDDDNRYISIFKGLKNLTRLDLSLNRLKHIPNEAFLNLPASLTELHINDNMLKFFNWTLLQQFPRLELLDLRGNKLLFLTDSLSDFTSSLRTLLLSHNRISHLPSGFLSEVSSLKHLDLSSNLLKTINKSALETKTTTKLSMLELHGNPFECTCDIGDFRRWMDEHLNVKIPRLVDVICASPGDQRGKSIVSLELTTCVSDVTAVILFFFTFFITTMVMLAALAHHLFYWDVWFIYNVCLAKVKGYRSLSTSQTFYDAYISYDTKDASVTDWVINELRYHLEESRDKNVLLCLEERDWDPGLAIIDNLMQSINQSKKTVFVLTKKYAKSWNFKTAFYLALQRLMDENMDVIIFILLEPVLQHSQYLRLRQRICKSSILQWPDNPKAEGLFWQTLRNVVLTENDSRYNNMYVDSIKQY
Put plainly: Human TLR8 agonist activity assay (measured in a similar manner). Particulars: HEK-Blue TLR cells, SEAP reporter, measured in a similar manner to TLR7; some values average of multiple measurements. The format is cell-based. On the procedure:
(§1) This procedure describes a method for assaying human TLR7 (hTLR7) and human TLR8 (hTLR8) agonist activity of the compounds disclosed herein.
HEK-Blue™ TLR7 cells were added to each well of a 384-well tissue-culture plate (15,000 cells per well) and incubated 16-18 h at 37° C., 5% CO2. Compounds (100 nL) were dispensed into wells containing the HEK-Blue™ TLR cells and the treated cells were incubated at 37° C., 5% CO2. After 18 h, ten microliters 5 of freshly prepared Quanti-Blue™ reagent (Invivogen) was added to each well and incubated for 30 min (37° C., […]). SLAP levels were measured using an Envision plate reader (OD=620 nm). […] Some of the reported activities were the average of multiple measurements.
TLR8 activity was measured in a similar manner.

In the next assay the target is T2, human TLR7 (hTLR7) (Homo sapiens, UniProt Q9NYK1).
T2 construct: host or cells: HEK-Blue TLR7 cells (engineered human embryonic kidney cells)
T2 sequence (Q9NYK1 27-1049): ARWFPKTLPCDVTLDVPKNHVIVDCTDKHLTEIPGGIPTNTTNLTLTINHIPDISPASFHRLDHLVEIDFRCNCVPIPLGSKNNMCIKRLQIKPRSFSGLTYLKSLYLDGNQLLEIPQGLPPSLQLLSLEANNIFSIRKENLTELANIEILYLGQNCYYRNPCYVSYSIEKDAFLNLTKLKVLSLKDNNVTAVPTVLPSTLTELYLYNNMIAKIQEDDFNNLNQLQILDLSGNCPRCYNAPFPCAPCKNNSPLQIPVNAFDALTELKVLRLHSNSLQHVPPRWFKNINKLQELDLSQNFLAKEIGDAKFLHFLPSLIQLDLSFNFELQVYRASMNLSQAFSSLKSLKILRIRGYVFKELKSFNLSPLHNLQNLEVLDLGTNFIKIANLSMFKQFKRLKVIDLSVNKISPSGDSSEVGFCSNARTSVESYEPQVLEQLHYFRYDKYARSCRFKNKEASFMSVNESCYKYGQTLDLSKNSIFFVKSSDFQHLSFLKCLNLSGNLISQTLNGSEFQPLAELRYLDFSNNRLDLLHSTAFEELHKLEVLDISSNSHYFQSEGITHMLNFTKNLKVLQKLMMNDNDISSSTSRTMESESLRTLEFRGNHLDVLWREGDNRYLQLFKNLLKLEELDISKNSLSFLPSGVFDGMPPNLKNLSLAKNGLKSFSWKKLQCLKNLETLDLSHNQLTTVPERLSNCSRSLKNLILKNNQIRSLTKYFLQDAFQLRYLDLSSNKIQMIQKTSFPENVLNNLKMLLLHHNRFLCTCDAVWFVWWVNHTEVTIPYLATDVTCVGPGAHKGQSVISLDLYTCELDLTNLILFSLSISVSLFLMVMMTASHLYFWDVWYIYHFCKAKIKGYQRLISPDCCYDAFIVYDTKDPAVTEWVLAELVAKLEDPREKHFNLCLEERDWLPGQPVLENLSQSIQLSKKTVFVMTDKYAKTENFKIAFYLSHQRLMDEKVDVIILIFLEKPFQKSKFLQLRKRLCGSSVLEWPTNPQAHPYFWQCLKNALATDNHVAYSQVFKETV
Description: Human TLR7 agonist activity assay (HEK-Blue TLR7 SEAP reporter). The format is cell-based. The conditions noted are these: HEK-Blue TLR7 cells, 18 h incubation, Quanti-Blue, OD 620 nm, some values average of multiple measurements. The protocol: as §1
HEK-Blue™ TLR7 cells were added to each well of a 384-well tissue-culture plate (15,000 cells per well) and incubated 16-18 h at 37° C., 5% CO2. Compounds (100 nL) were dispensed into wells containing the HEK-Blue™ TLR cells and the treated cells were incubated at 37° C., 5% CO2. After 18 h, ten microliters 5 of freshly prepared Quanti-Blue™ reagent (Invivogen) was added to each well and incubated for 30 min (37° C., […]). SLAP levels were measured using an Envision plate reader (OD=620 nm). The half maximal effective concentration values (ECSO; compound concentration which induced a response halfway between the assay baseline and maximum) were calculated. Some of the reported activities were the average of multiple measurements.

As for `CCCCN(CCO)c1nc(N)nc2cn(Cc3c(F)cc(C4=CCC(NC5CCOCC5)CC4)cc3OC)nc12` (stereo not shown) [Compound 190], the EC50 at human TLR8 (hTLR8) turned out to be 1680 nM; on human TLR7 (hTLR7) it was 563 nM. In the same order, the values of `CCCCN(CCO)c1nc(N)nc2cn(Cc3ccc(CN4CCCCC4)cc3OC)nc12` [Compound 2] are 1010 nM and 1340 nM. The compound `CCCCN(CCO)c1nc(N)nc2cn(Cc3ccc(CN[C@H]4CCOC4)c4nccnc34)nc12` [Compound 205] showed an EC50 at human TLR8 (hTLR8) of 1340 nM.

`CCCCN(CCO)c1nc(N)nc2cn(Cc3c(OC)cc(CNC4CCOCC4)cc3OC)nc12` [Compound 144]: the results for the EC50 on human TLR8 (hTLR8) and on human TLR7 (hTLR7) were 2060 nM and 1870 nM, respectively. In the case of `CCCCN(CCO)c1nc(N)nc2cn(Cc3ccc(CNC4CCOCC4)c4ncsc34)nc12` [Compound 210], on human TLR8 (hTLR8), the EC50 is 1860 nM. In other words, the single-digit micromolar range. For the compound `CCCCN(CCO)c1nc(N)nc2cn(Cc3c(F)cc(CN[C@@H]4COC[C@@H]4O)cc3OC)nc12` [Compound 95], the values for the 50% effective concentration (EC50) on human TLR8 (hTLR8) and at human TLR7 (hTLR7) were 2500 nM and 1240 nM, respectively. `COc1cc(CN[C@@H]2CCOC2)ccc1Cn1cc2nc(N)nc(N(CCO)CCCCF)c2n1` [Compound 173]: the concentration for a half-maximal effect (EC50) turned out to be 3130 nM on human TLR8 (hTLR8) and 2630 nM at human TLR7 (hTLR7).

Consider `CCCCN(CCO)c1nc(N)nc2cn(Cc3ccc(CNC4COC4)cc3OC)nc12` [Compound 26], for which the values for the EC50 at human TLR8 (hTLR8) and on human TLR7 (hTLR7) were 1140 nM and 828 nM, respectively. `CCCCN(CCO)c1nc(N)nc2cn(Cc3ccc(CNC(C)(C)C)cc3C(F)F)nc12` [Compound 128]: the EC50 at human TLR8 (hTLR8) was determined as 628 nM; on human TLR7 (hTLR7) it was 1190 nM. In the same order, the values of `CCCCN(CCO)c1nc(N)nc2cn(Cc3ccc(CNC4(CO)CCOCC4)cc3OC)nc12` [Compound 154] are 1100 nM and 2140 nM. As for `CCCCN(CCO)c1nc(N)nc2cn(Cc3ccc(CNC4CCS(=O)(=O)CC4)c4scnc34)nc12` [Compound 213], the EC50 worked out at 677 nM on human TLR8 (hTLR8) and 396 nM on human TLR7 (hTLR7). `CCCCN(CCO)c1nc(N)nc2cn(Cc3ccc(CNC4CCOCC4)cc3)nc12` [Compound 158]: the EC50 at human TLR8 (hTLR8) amounted to 389 nM; at human TLR7 (hTLR7) it was 1160 nM. As for `CCCCN(CCO)c1nc(N)nc2cn(Cc3ccc(CNC4CC(F)(F)C4)c4cccnc34)nc12` [Compound 64], the EC50 on human TLR8 (hTLR8) amounted to 1550 nM; at human TLR7 (hTLR7) it was 2110 nM.

On to `CCCCN(CCO)c1nc(N)nc2cn(Cc3ccc(CN4CCOCC4)cc3OC)nc12` [Compound 18], for which the EC50 at human TLR8 (hTLR8) is 447 nM; on human TLR7 (hTLR7) it was 380 nM. Regarding `CCCCN(CCO)c1nc(N)nc2cn(Cc3ccc(CN4CC(CCOC)C4)c4cccnc34)nc12` [Compound 48], the values for the 50% effective concentration (EC50) on human TLR8 (hTLR8) and on human TLR7 (hTLR7) were 227 nM and 182 nM, respectively. Turning to `CCCCN(CCO)c1nc(N)nc2cn(Cc3ccc(CN[C@@H]4CCOC4)c4c3OCCC4)nc12` [Compound 135], the concentration for a half-maximal effect (EC50) came out at 491 nM at human TLR8 (hTLR8) and 1140 nM on human TLR7 (hTLR7).

Regarding `CCCCN(CCO)c1nc(N)nc2cn(Cc3c(F)cc(N4CCC(N[C@@H]5CCCOC5)CC4)cc3F)nc12` [Compound 132], the EC50 at human TLR8 (hTLR8) was determined as 1860 nM; on human TLR7 (hTLR7), 389 nM. In the same order, the values of `CCCCN(CCO)c1nc(N)nc2cn(Cc3c(F)cc(C4CCN(C5CCOCC5)CC4)cc3OC)nc12` [Compound 37, 2-((5-amino-2-(2-fluoro-6-methoxy-4-(1-(tetrahydro-2H-pyran-4-yl)piperidin-4-yl)benzyl)-2H-pyrazolo[4,3-d]pyrimidin-7-yl)(butyl)amino)ethan-1-ol] are 516 nM and 176 nM. Take `CCCCN(CCO)c1nc(N)nc2cn(Cc3ccc(CNC4CCOC(C)(C)C4)cc3OC)nc12` (single isomer, unassigned) [Compound 111, 2-((5-Amino-2-(4-(((2,2-dimethyltetrahydro-2H-pyran-4-yl)amino)methyl)-2-methoxybenzyl)-2H-pyrazolo[4,3-d]pyrimidin-7-yl)(butyl)amino) ethan-1-ol]: the concentration giving a half-maximal response (EC50) at human TLR8 (hTLR8) amounted to 453 nM; at human TLR7 (hTLR7) it was 654 nM. Regarding `CCCCN(CCO)c1nc(N)nc2cn(Cc3ccc(CNC4(C)CCC4)cc3C(F)F)nc12` [Compound 167], the EC50 at human TLR8 (hTLR8) turned out to be 1610 nM. Take `CCCCN(CCO)c1nc(N)nc2cn(Cc3ccc(CNC4(COC)CCOCC4)cc3OC)nc12` [Compound 165]: on human TLR8 (hTLR8), the EC50 was found to be 460 nM. In turn, `CCCCN(CCO)c1nc(N)nc2cn(Cc3ccc(CNCC4CC5(CCC5)C4)c4cccnc34)nc12` [Compound 67] returned an EC50 on human TLR8 (hTLR8) of 2160 nM. At human TLR8 (hTLR8), `CCCCN(CCO)c1nc(N)nc2cn(Cc3ccc(CNC4CC5(COC5)C4)cc3)nc12` [Compound 159] yielded a half-maximal effective concentration (EC50) of 1190 nM.

Take `CCCCN(CCO)c1nc(N)nc2cn(Cc3ccc(CNC4CCOCC4)c4cn[nH]c34)nc12` [Compound 204]: the response at human TLR8 (hTLR8) was half-maximal at 1270 nM (EC50).

`CCCCN(CCO)c1nc(N)nc2cn(Cc3ccc(CNC4CCOC(C)C4)cc3OC)nc12` (stereo not shown) [Compound 126] had an EC50 on human TLR8 (hTLR8) of 689 nM. Compound `CCCCN(CCO)c1nc(N)nc2cn(Cc3cnc(CN[C@H]4C[C@H](OC)C4)cc3OC)nc12` [Compound 124] showed an EC50 at human TLR8 (hTLR8) of 1870 nM.

With `CCCCN(CCO)c1nc(N)nc2cn(Cc3ccc(CNCCO)cc3)nc12` [Compound 160], on human TLR8 (hTLR8), the half-maximal effective concentration (EC50) was 1970 nM. As for `CCC[C@@H](CO)N(C)c1nc(N)nc2cn(Cc3ccc(CN4CCCC4)cc3OC)nc12` [Compound 87], a half-maximal effect on human TLR8 (hTLR8) (EC50) was put at 1820 nM. In the case of `CCCCN(CCO)c1nc(N)nc2cn(Cc3ccc(CNC4CCC(F)(F)CC4)c4scnc34)nc12` [Compound 203], on human TLR8 (hTLR8), the EC50 came to 2400 nM. `CCCCN(CCO)c1nc(N)nc2cn(Cc3ccc(CNC4CCOC(C)(C)C4)c4cn[nH]c34)nc12` (stereo not shown) [Compound 209] yielded a concentration for a half-maximal effect (EC50) at human TLR8 (hTLR8) of 2850 nM. Compound `CCCN(CCO)c1nc(N)nc2cn(Cc3ccc(CNC4CCC4)cc3OC)nc12` [Compound 43] gave a concentration for a half-maximal effect (EC50) on human TLR8 (hTLR8) of 1740 nM. Regarding `CCCCN(CCO)c1nc(N)nc2cn(Cc3ccc(CNCCO)cc3C(F)F)nc12` [Compound 129], the half-maximal effective concentration (EC50) on human TLR8 (hTLR8) turned out to be 2710 nM.

These data come from US20250282776A1, “Bicyclic TLR7 Agonists and Uses Thereof” (Bristol-Myers Squibb Company, priority 2024, published 2025).
